We go through 22 compounds from ChEMBL document CHEMBL3580562 (J Med Chem, 2015).

The structures appear in SMILES notation.

In one series the test system is Mus musculus. Kind of series: AUC in mouse assessed as GW-7604 at 100 mg/kg, po. It is filed as ADME, organism-based. The conditions noted are these: in vivo.
A short description of series [1]: AUC in mouse at 100 mg/kg, po. The conditions noted are these: in vivo. It is filed as ADME, organism-based.
Series [2] is described as follows: Half life in phosphate buffer at pH 7.4 at 37 degC. It is filed as physicochemical.
A short description of series [3]: Drug uptake in CD-IGS rat at 1 mg/kg, po administered for 3 days measured at 24 hrs post last dose. The conditions noted are these: in vivo, read-out: Drug uptake. It is filed as ADME, organism-based.
Series [4] can be described thus: AUC in mouse at 10 mg/kg, po. Type of series: ADME, organism-based. The conditions noted are these: in vivo.
The nature of series [5]: Drug uptake in CD-IGS rat at 1 mg/kg, po administered for 3 days measured at 6 hrs post last dose. Type of series: ADME, organism-based. The conditions noted are these: in vivo, read-out: Drug uptake.
Series [6] is described as follows: Drug level in microsomes (unknown origin) treated with (E)-3-(4-((E)-2-(2-chloro-4-fluorophenyl)-1-(1H-indazol-5-yl)but-1-enyl)phenyl)acrylic acid. It is filed as ADME, Microsome.
Series [7] is described as follows: AUC in 17-beta estradiol pellets supplemented nu/nu mouse xenografted with tamoxifen-resistant human MCF7 cells at 100 mg/kg/day, po administered for 4 weeks measured on day 28. Type of series: ADME, organism-based. The conditions noted are these: in vivo. Background: Xenograft models place foreign cells or tissue in a host animal.
A short description of series [8]: Clearance in rat at 3 mg/kg, iv and 10 mg/kg, po. The conditions noted are these: in vivo. Type of series: ADME, organism-based.
Series [9] in a line: Clearance in dog at 3 mg/kg, iv and 10 mg/kg, po. It is filed as ADME, organism-based, Canis lupus familiaris. The conditions noted are these: in vivo.
A short description of series [10]: Clearance in cynomolgus monkey at 3 mg/kg, iv and 10 mg/kg, po. The conditions noted are these: in vivo. Type of series: ADME, organism-based, Macaca fascicularis.
The nature of series [11]: Volume of distribution at steady state in mouse at 3 mg/kg, iv and 10 mg/kg, po. The conditions noted are these: in vivo, read-out: Vdss. Type of series: ADME, organism-based.
Series [12] is described as follows: Volume of distribution at steady state in rat at 3 mg/kg, iv and 10 mg/kg, po. Type of series: ADME, organism-based. The conditions noted are these: in vivo, read-out: Vdss.
Series [13] can be described thus: Volume of distribution at steady state in dog at 3 mg/kg, iv and 10 mg/kg, po. The conditions noted are these: in vivo, read-out: Vdss. It is filed as ADME, organism-based, Canis lupus familiaris.
A short description of series [14]: Volume of distribution at steady state in cynomolgus monkey at 3 mg/kg, iv and 10 mg/kg, po. The conditions noted are these: in vivo, read-out: Vdss. It is filed as ADME, organism-based, Macaca fascicularis.
Series [15] in a line: Half life in mouse at 3 mg/kg, iv. Type of series: ADME, organism-based. The conditions noted are these: in vivo.
The nature of series [16]: Half life in rat at 3 mg/kg, iv. Type of series: ADME, organism-based. The conditions noted are these: in vivo.
Series [17] in a line: Half life in dog at 3 mg/kg, iv. It is filed as ADME, organism-based, Canis lupus familiaris. The conditions noted are these: in vivo.
The nature of series [18]: Half life in cynomolgus monkey at 3 mg/kg, iv. It is filed as ADME, organism-based, Macaca fascicularis. The conditions noted are these: in vivo.
Series [19] can be described thus: Cmax in mouse at 10 mg/kg, po. Type of series: ADME, organism-based. Further details: dose 10 mg/kg, route oral. The conditions noted are these: in vivo.
The nature of series [20]: Cmax in rat at 10 mg/kg, po. Type of series: ADME, organism-based. Further details: dose 10 mg/kg, route oral. The conditions noted are these: in vivo.
A short description of series [21]: Cmax in dog at 10 mg/kg, po. Type of series: ADME, organism-based, Canis lupus familiaris. Also on record: dose 10 mg/kg, route oral. The conditions noted are these: in vivo.
Series [22] is described as follows: Cmax in cynomolgus monkey at 10 mg/kg, po. Type of series: ADME, organism-based, Macaca fascicularis. Further details: dose 10 mg/kg, route oral. The conditions noted are these: in vivo.
Series [23] in a line: AUC in rat at 10 mg/kg, po. It is filed as ADME, organism-based. The conditions noted are these: in vivo.
The nature of series [24]: AUC in 17-beta estradiol pellets supplemented nu/nu mouse xenografted with tamoxifen-resistant human MCF7 cells at 30 mg/kg/day, po administered for 4 weeks measured on day 28. The conditions noted are these: in vivo. Type of series: ADME, organism-based.
Series [25] can be described thus: AUC in dog at 10 mg/kg, po. Type of series: ADME, organism-based, Canis lupus familiaris. The conditions noted are these: in vivo.
Series [26] in a line: AUC in cynomolgus monkey at 10 mg/kg, po. The conditions noted are these: in vivo. It is filed as ADME, organism-based, Macaca fascicularis.
The nature of series [27]: Oral bioavailability in rat at 10 mg/kg. The conditions noted are these: in vivo. Type of series: ADME, organism-based.
Series [28] is described as follows: Oral bioavailability in dog at 10 mg/kg. The conditions noted are these: in vivo. It is filed as ADME, organism-based, Canis lupus familiaris.
Series [29] can be described thus: Oral bioavailability in cynomolgus monkey at 10 mg/kg. Type of series: ADME, organism-based, Macaca fascicularis. The conditions noted are these: in vivo.
A short description of series [30]: Drug metabolism in microsomes (unknown origin) assessed as formation of (2S,3S,4R,5R,6S)-6-((E)-3-(4-((E)-2-(2-chloro-4-fluorophenyl)-1-(1H-indazol-5-yl)but-1-enyl)phenyl)acryloyloxy)-3,4,5-trihydroxytetrahydro-2H-pyran-2-carboxylic acid. Type of series: ADME, Microsome.
A short description of the next series: in vivo. The conditions noted are these: mouse, iv, 3 mg/kg.
Series [31] can be described thus: AUC in 17-beta estradiol pellets supplemented nu/nu mouse xenografted with tamoxifen-resistant human MCF7 cells at 200 mg/kg, sc administered 3 times per week for 4 weeks measured on day 28. The conditions noted are these: in vivo. It is filed as ADME, organism-based.

On to `CC/C(=C(\c1ccc(O)cc1)c1ccc(/C=C/C(=O)O)cc1)c1ccccc1`, for which the AUC with Mus musculus came to 13000 ng·h/mL.

`CC/C(=C(\c1ccccc1)c1ccc(/C=C/C(=O)O)cc1)c1ccccc1` came in with an AUC in [1] of 137000 ng·h/mL.

The compound `O=C(Cc1ccccc1Nc1c(Cl)cccc1Cl)O[C@@H]1O[C@H](C(=O)O)[C@@H](O)[C@H](O)[C@H]1O` had a half-life in series [2] of 0.9 h.

On to `CC/C(=C(/c1ccc(/C=C/C(=O)O)cc1)c1cccc2[nH]ncc12)c1ccccc1`, for which the concentration at 24 h in [3] turned out to be 0.1 nM. Also, the AUC in [4] came out at 2800 ng·h/mL.

Consider `CC/C(=C(/c1ccc(/C=C/C(=O)O)cc1)c1ccc2[nH]c(=O)oc2c1)c1ccccc1`, for which, in series [3], the concentration at 24 h is 0.2 nM. In addition, in [4], the AUC was determined as 3000 ng·h/mL.

In the case of `CC/C(=C(/c1ccc(/C=C/C(=O)O)cc1)c1ccc2[nH]ccc2c1)c1ccccc1`, in [4], the AUC is 9400 ng·h/mL.

`CC/C(=C(/c1ccc(/C=C/C(=O)O)cc1)c1ccc2[nH]nnc2c1)c1ccccc1` had an area under the curve (AUC) in series [4] of 2300 ng·h/mL.

On to `CC/C(=C(/c1ccc(/C=C/C(=O)O)cc1)c1ccc2[nH]ncc2c1)c1ccccc1`, for which the AUC in series [1] is 240000 ng·h/mL; in series [4], 5800 ng·h/mL. For the same compound, the concentration at 24 h in series [3] came to 3.8 nM.

For the compound `CC/C(=C(/c1ccc(/C=C/C(=O)O)cc1)c1ccc2[nH]ncc2c1)c1ccncc1C`, the concentration at 24 h in series [3] turned out to be 7.6 nM. Moreover, in series [4], the AUC worked out at 81 ng·h/mL.

On to `CC/C(=C(/c1ccc(/C=C/C(=O)O)cc1)c1ccc2[nH]ncc2c1)c1ccncc1Cl`, for which the concentration at 24 h in series [3] was determined as 0.5 nM. Further, the exposure (AUC) in [4] was found to be 110 ng·h/mL.

As to `CC/C(=C(/c1ccc(/C=C/C(=O)O)cc1)c1ccc2[nH]ncc2c1)c1cscc1C`, in series [3], the concentration at 24 h was found to be 10 nM. The same compound came in with an AUC in series [4] of 3800 ng·h/mL.

As to `CC/C(=C(/c1ccc(/C=C/C(=O)O)cc1)c1ccc2[nH]ncc2c1)c1ccccc1Cl`, the concentration at 24 h in series [3] is 3.7 nM. The same compound displayed an AUC in [4] of 15000 ng·h/mL.

For `CC/C(=C(/c1ccc(/C=C/C(=O)O)cc1)c1ccc2[nH]ncc2c1)c1cccc(Cl)c1`, in series [3], the concentration at 24 h came to 11 nM. Moreover, the AUC in series [4] is 11000 ng·h/mL.

Turning to `CC/C(=C(/c1ccc(/C=C/C(=O)O)cc1)c1ccc2[nH]ncc2c1)c1ccccc1C#N`, the AUC in series [4] came out at 200 ng·h/mL.

Turning to `CC/C(=C(/c1ccc(/C=C/C(=O)O)cc1)c1ccc2[nH]ncc2c1)c1ccccc1C`, the concentration at 24 h in series [3] stood at 1.7 nM. In series [4], this compound displayed an AUC of 7200 ng·h/mL.

With `CC/C(=C(/c1ccc(/C=C/C(=O)O)cc1)c1ccc2[nH]ncc2c1)c1ccc(C#N)cc1C`, the concentration at 6 h in [5] amounted to 14 nM. For the same compound, the AUC in series [4] was found to be 4300 ng·h/mL.

For `CC/C(=C(/c1ccc(/C=C/C(=O)O)cc1)c1ccc2[nH]ncc2c1)c1ccc(C#N)cc1Cl`, in series [5], the concentration at 6 h stood at 10 nM. Also, the AUC in series [4] amounted to 2900 ng·h/mL.

Take `CC/C(=C(/c1ccc(/C=C/C(=O)O[C@@H]2O[C@H](C(=O)O)[C@@H](O)[C@H](O)[C@H]2O)cc1)c1ccc2[nH]ncc2c1)c1ccc(F)cc1Cl`: the Drug metabolism entry in series [6] is recorded as “metabolite_detected”. Further, in series [2], the half-life is 8.1 h.

`COc1ccc(-c2sc3cc(O)ccc3c2Oc2ccc(OCCN3CCCCC3)cc2)cc1` [ARZOXIFENE] registered an exposure (AUC) at 672 h in [7] of 50000 ng·h/mL.

`CC/C(=C(/c1ccc(/C=C/C(=O)O)cc1)c1ccc2[nH]ncc2c1)c1ccc(F)cc1Cl` [BRILANESTRANT]: the concentration at 24 h in series [3] amounted to 5.2 nM. For the same compound, the AUC in series [4] worked out at 8800 ng·h/mL; in series [23], 5800 ng·h/mL; in [25] it was 69000 ng·h/mL; in series [26], 10000 ng·h/mL. Moreover, the clearance amounted to 14 mL/min/kg in series [8], 1.6 mL/min/kg in [9], 7 mL/min/kg in series [10] and 11 mL/min/kg in “in vivo”. The Vd is 1.2 L/kg in [11], 1.9 L/kg in series [12], 0.2 L/kg in [13] and 0.5 L/kg in series [14]. In addition, the half-life was 4.2 h in [15], 3.9 h in series [16], 11 h in series [17] and 13 h in series [18]. For the same compound, the Cmax came to 4400 ng/mL in series [19], 1800 ng/mL in series [20], 20000 ng/mL in series [21] and 6100 ng/mL in series [22]. The AUC at 672 h in [7] was 45000 ng·h/mL; in series [24], 21000 ng·h/mL. Also, the bioavailability in series [27] was 49%; in series [28], 61%; in series [29], 42%. In addition, in [30], the Drug metabolism entry is on record as “metabolite_detected”.

Compound `C[C@]12CC[C@@H]3c4ccc(O)cc4C[C@@H](CCCCCCCCC[S+]([O-])CCCC(F)(F)C(F)(F)F)[C@H]3[C@@H]1CC[C@@H]2O` (stereo partly specified) [FULVESTRANT] registered an exposure (AUC) at 672 h in series [31] of 11000 ng·h/mL.

In series [7], `Cc1c(-c2ccc(O)cc2)n(Cc2ccc(OCCN3CCCCC3)cc2)c2ccc(O)cc12` [PIPENDOXIFENE] had an AUC at 672 h of 7000 ng·h/mL.

What is called AUC is the area under the concentration-time curve, a measure of exposure. One may read the half-life as the time needed for the level to fall by half in the phase considered. As a reminder, the Cmax is the highest concentration seen after dosing. The bioavailability is dose-corrected exposure relative to a reference, in per cent.
